Measurements: patent publication US6162875A, “Low nitrosamine systems for rubber vulcanization” (Robinson Brothers Limited, priority 1992, dated 2000)

Columns and labels:
[1] = system: bacterial strains TA 1535, TA 1537, TA 1538, TA 98 and TA 100; assay: Ames test for mutagenicity, revertant colony counts; settings: 50, 150, 500, 1500, 5000 μg/plate, with and without metabolic activation, five strains
[2] = system: bacterial strains TA 1535, TA 1537, TA 1538, TA 98 and TA 100; assay: Preliminary test for toxicity to the bacterial strains (Ames test); settings: for precipitates observed: 5000 μg dose, all strains

Compound: O=NN(Cc1ccccc1)Cc1ccccc1 [N-nitrosodibenzylamine]
- increase of revertant colony counts over control values [1]: no increase of revertant colony counts over control values
- precipitates observed [2]: precipitates were observed
- toxicity to the bacterial strains ([2]; doses up to and including 5000 μg/plate): non-toxic

Compound: CN(C)N=O [dimethylnitrosamine]
- mutagenic to TA 1535 (TA 1535): mutagenic
- mutagenic to TA 100 (TA 100): mutagenic

Compound: N-nitrosodiisononylamine
- increase of revertant colony counts over control values [1]: no increase of revertant colony counts over control values

Compound: zinc diisononyldithiocarbamate [Example 1]
- increase of revertant colony counts over control values [1]: no increase of revertant colony counts over control values
- precipitates observed [2]: precipitates were observed
